Test results: US20250161419A1, “SERPIN PEPTIDES AND METHODS OF USING THE SAME” (SERPIN PHARMA, LLC, priority 2022, published 2025)

Columns and labels:
NFκB [1] = assay: NFκB reporter assay stimulated with LPS (THP1-XBlue-MD2-GD14 reporter cells, SEAP read-out); type: cell-based; conditions: peptide 50 μg/ml before LPS 5 ng/ml, overnight
Protocol: The reporter cells (THP1-XBlue-MD2-GD14 cells) were treated with each peptide (50 μg/ml) before being insulted with LIPS (5 ng/ml) and incubated overnight. The NFκB inducible Secreted Embryonic Alkaline Phosphatase (SEAP) was measured in the supernatant and read for absorbance.

phospho-STAT6 = assay: IL-13 stimulated STAT6 phosphorylation in esophageal EPC2 cells (western blot); type: cell-based, human; conditions: 30 minutes post IL-13 induction
Protocol: Esophageal EPC2 cells were treated with vehicle (ddw), A1AT or SP163M. Cells were collected at time-points indicated and western blot analysis of phospho-specific STAT6 was analyzed. […] Using CRISPER/CAS9 technology, an LRP1 knockout esophageal EPC2 cell line was created.

phospho-ERK1/2 = assay: Cell signaling analysis in PC12 cells, immunoblot of phospho-ERK1/2; type: cell-based, rat; conditions: SP163M 24 or 240 nM, NGF 0.36 nM, RAP 150 nM pretreatment 15 min
Protocol: Cell signaling analysis: Rat PC12 cells were purchased from ATCC (CRL-1721). PC12 cells were maintained in high glucose DMEM (Gibco, USA) containing 10% heat-inactivated FBS (Gibco, USA), 5% HyClone heat-inactivated horse serum (Cytiva, USA), penicillin (100 units/ml) and streptomycin ([…]) in 6-well plates that were pre-coated with 0.01 mg/ml type IV collagen (Sigma-Aldrich, St. Louis, MO, USA). Cells were transferred to serum-free medium (SFM) 4 h prior to adding effectors, and then treated with SP163M (2.4, 24 or 240 nM); EI-tPA (12 nM), NGF (0.36 nM), or vehicle (PBS) for 10 min. In some cases, cells were pre-incubated with the competitive antagonist of LRP1, GST-RAP (150 nM) for 15 min or electroporated using the Rat Neuron Nucleofector Amaxa Kit (Lonza Biosciences) and incubated with siRNA to silence LRP1 expression (siLRP1; M-094191-01-0010, Dharmacon) for 48 h. Control cells were transfected with non-targeting control (NTC) siRNA (NTC; D-001810-10-05, Dharmacon). Cells were rinsed with ice-cold PBS and proteins were extracted in RIPA buffer (20 mM sodium phosphate, 150 mM NaCl, pH 7.4, 1% Triton X-100, 0.5% sodium deoxycholate, 0.1% SDS) supplemented with protease and phosphatase inhibitors (Roche Diagnostics, USA). After 30 min on ice, lysates were centrifuged at 15000×g for 5 min, supernatant collected and stored at −20° C. Equal amounts of protein from cell lysates (20 μg), as determined by BCA Protein Assay (ThermoFisher Scientific, Waltham, MA, USA), were subjected to 10% SDS-PAGE and electro-transferred to nitrocellulose membranes. The membranes were blocked with 5% nonfat dried milk and then incubated with primary anti-phospho-AKT (Cell Signaling Technology, Danvers, MA, USA; cat #9271S; 1:1000), anti-phospho-ERK1/2 (Cell Signaling Technology, Danvers, MA, USA; cat #9101S; 1:1000), anti-LRP1 (Cell Signaling Technology, Danvers, MA, USA; cat #64099S; 1:1000) or anti total-ERK1/2 (Cell Signaling Technology, Danvers, MA, USA; cat #91012S; 1:1000). Immunoblots were developed using Radiance, Radiance Q, and Radiance Plus chemiluminescent substrates and imaged using a BioRad ChemiDoc Imaging System (Bio-Rad, Hercules, CA, USA).

[2] = Peptide stability as stated in Example 1 (no method described); type: physicochemical; conditions: stated as explanation of activity; no test described
NFκB [3] = assay: NFκB reporter assay stimulated with LPS (THP1-XBlue-MD2-GD14 reporter cells, SEAP read-out); type: cell-based; conditions: without LPS

Row | Substance | NFκB activity (NFκB inducible SEAP in supernatant) (NFκB [1]) | other results
1 | R R R V K F N K P F V F L M R R R (RRRVKFNKPFVFLMRRR; SP16 peptide core sequence including the LRP1 binding site) [SP22] | NFκB activity was significantly reduced | 
2 | A1AT: alpha-1 antitrypsin, the prototypical SERPIN [Peptide A1AT] |  | STAT6 phosphorylation (phospho-STAT6): STAT6 was phosphorylated in vehicle and A1AT treated cells
3 | V R F N R P F L (VRFNRPFL) [SP31] | anti-inflammatory activity of the peptide was lost | 
4 | NGF: NGF-β purchased from Sigma, cell signaling control [reference compound] |  | activation of phospho-ERK1/2 after 10 min, with or without RAP (phospho-ERK1/2): activated ERK1/2
5 | R R R L R F N R P F L V V I R R R (RRRLRFNRPFLVVIRRR) [SP26] | heightened activity | 
6 | FPKMVPQFNTELKIFPEVNIK (FPKMVPQFNTELKIFPEVNIK) [SP34, reference compound] | neither the scrambled core control peptide nor the AAT 0-36 fragment decreased the NFκB activity | 
7 | VRFNRPFLMII [SP28] | lack of function | 
8 | RRRVKFNKPFVFLMIEQNTKRRR (RRRVKFNKPFVFLMIEQNTKRRR; SP16 peptide core sequence including the LRP1 binding site) [SP21] | NFkB inhibition increased as well relative to SP16 | peptide stability [2]: stability increased
9 | SIPPEVKFNKPFVFLMIEQNTKSPLFMGKVVNP (SIPPEVKFNKPFVFLMIEQNTKSPLFMGKVVNP; SP16 peptide core sequence including the LRP1 binding site; listed as Homo sapiens) [SP8, reference compound] | neither the scrambled core control peptide nor the AAT 0-36 fragment decreased the NFκB activity | NFkB induction by the peptide itself (NFκB [3]): showed NFkB inducible properties without the need for LPS
10 | R R R V R F N R P F L M I I R R R (RRRVRFNRPFLMIIRRR) [SP29] | heightened activity | 
11 | LRFNRPFLVVI [SP24] | lack of function | 
12 | VKFNKPFVFLM (SP16 peptide core sequence including the LRP1 binding site; listed as Homo sapiens) [SP20] | did not have an inhibitory effect | peptide stability [2]: unstable
13 | R R R V R F N R P F L R R R (RRRVRFNRPFLRRR) [SP32] | could not be restored with the poly arginine flanks | 
